# Test results from publication PMC12488480, “A missing enzyme-rescue metabolite as cause of a rare skeletal dysplasia” (Nature, 2025).
# What was measured:
# Assay type in all cases: biochemical
# [1] = molecular target: T1, UXS1 (UDP-xylose synthase) (Homo sapiens, UniProt Q8NBZ7); test: NaBH4 reduction of enzyme-bound NAD+ in recombinant UXS1, LC-MS of NADH and activity
# T1 sequence (Q8NBZ7 1-420): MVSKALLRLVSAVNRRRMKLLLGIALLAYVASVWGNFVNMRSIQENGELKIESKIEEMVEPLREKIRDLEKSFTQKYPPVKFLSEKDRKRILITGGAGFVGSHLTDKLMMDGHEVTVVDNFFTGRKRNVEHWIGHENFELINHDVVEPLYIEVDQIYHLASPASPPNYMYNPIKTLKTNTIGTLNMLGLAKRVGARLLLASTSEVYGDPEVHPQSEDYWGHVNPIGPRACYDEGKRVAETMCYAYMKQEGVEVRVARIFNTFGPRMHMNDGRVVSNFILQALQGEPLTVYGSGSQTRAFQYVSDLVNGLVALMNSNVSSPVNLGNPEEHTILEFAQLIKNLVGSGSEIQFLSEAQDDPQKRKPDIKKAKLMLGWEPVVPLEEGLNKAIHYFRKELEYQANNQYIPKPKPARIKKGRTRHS
# [2] = molecular target: T1, UXS1 (UDP-xylose synthase); test: Recombinant enzyme assay, LC-MS
# [3] = molecular target: T2, TGDS (dTDP-D-glucose 4,6-dehydratase) (Homo sapiens, UniProt O95455); test: Recombinant enzyme assay, LC-MS
# T2 construct: N-terminal hexahistidine-tag fused to amino acid 15 of TGDS
# T2 sequence (O95455 15-350): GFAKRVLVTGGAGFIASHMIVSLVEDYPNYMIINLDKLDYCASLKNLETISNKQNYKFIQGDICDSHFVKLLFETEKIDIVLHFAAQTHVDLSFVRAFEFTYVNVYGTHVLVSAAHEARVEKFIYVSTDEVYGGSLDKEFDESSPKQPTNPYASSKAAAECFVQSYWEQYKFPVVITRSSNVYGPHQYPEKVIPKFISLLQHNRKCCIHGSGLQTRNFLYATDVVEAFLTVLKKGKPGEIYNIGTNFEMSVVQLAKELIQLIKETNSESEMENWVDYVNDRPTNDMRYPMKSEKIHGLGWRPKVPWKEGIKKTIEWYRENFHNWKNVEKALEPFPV
compound,measurement,setting,value
NC(=O)C1=CN([C@@H]2O[C@H](COP(=O)(O)OP(=O)(O)OC[C@H]3O[C@@H](n4cnc5c(N)ncnc54)[C@H](O)[C@@H]3O)[C@@H](O)[C@H]2O)C=CC1 [NADH],"NaBH4 reduction of enzyme-bound NAD+ in recombinant UXS1, LC-MS of NADH and acti",[1],This led to tenfold lower levels of NAD^+ and a concomitant increase in NADH
"O=c1ccn([C@@H]2O[C@H](COP(=O)(O)OP(=O)(O)O[C@H]3OC[C@@H](O)[C@H](O)[C@H]3O)[C@@H](O)[C@H]2O)c(=O)[nH]1 [UDP-Xyl, UDP-xylose]","Recombinant enzyme assay, LC-MS",[2],"We observed an almost complete recovery of UDP-xylose production, an increase of NAD^+"
"C[C@H]1O[C@H](OP(=O)(O)OP(=O)(O)OC[C@H]2O[C@@H](n3ccc(=O)[nH]c3=O)[C@H](O)[C@@H]2O)[C@H](O)[C@@H](O)C1=O [UDP-4k6dG, UDP-4-keto-6-deoxyglucose]","Recombinant enzyme assay, LC-MS",[3],"TGDS produced a metabolite with identical m/z, elution time and hydration status as UDP-4-keto-6-deoxyglucose produced by fungal UG46DH"
